# US8741897B2, “Glucocorticoid mimetics, methods of making them, pharmaceutical compositions and uses thereof” (Boehringer Ingelheim Pharmaceuticals Inc., priority 2003, dated 2014)
# Biological target: T1, human glucocorticoid receptor (GR) complex (Homo sapiens, UniProt P04150)
# T1 construct: made in house; host or cells: insect expression system (baculovirus lysate)
# T1 sequence (P04150 1-777): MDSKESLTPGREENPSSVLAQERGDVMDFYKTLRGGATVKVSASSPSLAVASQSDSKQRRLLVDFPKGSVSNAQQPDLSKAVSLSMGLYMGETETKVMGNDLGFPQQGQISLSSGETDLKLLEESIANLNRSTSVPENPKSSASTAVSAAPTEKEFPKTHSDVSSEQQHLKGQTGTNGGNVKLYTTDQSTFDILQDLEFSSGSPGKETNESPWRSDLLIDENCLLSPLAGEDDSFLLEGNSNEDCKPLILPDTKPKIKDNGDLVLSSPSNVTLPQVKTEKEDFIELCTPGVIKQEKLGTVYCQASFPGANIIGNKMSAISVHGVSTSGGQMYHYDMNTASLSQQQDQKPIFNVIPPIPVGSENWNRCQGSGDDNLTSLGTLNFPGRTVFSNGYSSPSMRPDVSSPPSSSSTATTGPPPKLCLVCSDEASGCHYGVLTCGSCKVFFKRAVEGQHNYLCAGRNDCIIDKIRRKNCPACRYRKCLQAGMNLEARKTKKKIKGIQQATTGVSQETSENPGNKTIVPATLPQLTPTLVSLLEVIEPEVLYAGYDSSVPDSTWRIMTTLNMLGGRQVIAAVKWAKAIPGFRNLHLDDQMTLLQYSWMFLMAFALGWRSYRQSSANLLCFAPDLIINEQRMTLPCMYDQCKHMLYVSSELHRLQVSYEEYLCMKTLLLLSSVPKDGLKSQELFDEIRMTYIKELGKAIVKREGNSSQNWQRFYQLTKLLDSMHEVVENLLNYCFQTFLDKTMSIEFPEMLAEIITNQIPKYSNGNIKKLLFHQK
# Experiment: Glucocorticoid receptor competitive binding assay (fluorescence polarization, TAMRA-labeled dexamethasone probe)
# Details: compounds of Formula (IA)
# Method: Compounds of the invention were evaluated for binding to the steroid receptor by a fluorescence polarization competitive binding assay. Detailed descriptions for preparation of recombinant glucocorticoid receptor (GR) complex used in the assay is described in U.S. patent application Pub.
# A. Glucocorticoid Receptor Competitive Binding Assay
# Step 1. Characterization of the Fluorescent Probe
# The wavelengths for maximum excitation and emission of the fluorescent probe should first be measured. An example of such a probe is rhodamine (TAMRA)-labeled dexamethasone.
# The affinity of the probe for the steroid receptor was then determined in a titration experiment. The fluorescence polarization value of the probe in assay buffer was measured on an SLM-8100 fluorometer using the excitation and emission maximum values described above. Aliquots of expression vector lysate were added and fluorescence polarization was measured after each addition until no further change in polarization value was observed. Non-linear least squares regression analysis was used to calculate the dissociation constant of the probe from the polarization values obtained for lysate binding to the probe.
# Step 2. Screening for Inhibitors of Probe Binding
# This assay uses fluorescence polarization (FP) to quantitate the ability of test compounds to compete with tetramethyl rhodamine (TAMRA)-labeled dexamethasone for binding to a human glucocorticoid receptor (GR) complex prepared from an insect expression system. The assay buffer was: 10 mM TES, 50 mM KCl, 20 mM Na2MoO4.2H2O, 1.5 mM EDTA, 0.04% w/v CHAPS, 10% v/v glycerol, 1 mM dithiothreitol, pH 7.4. Test compounds were dissolved to 1 mM in neat DMSO and then further diluted to 10× assay concentration in assay buffer supplemented with 10% v/v DMSO. Test compounds were serially diluted at 10× assay concentrations in 10% DMSO-containing buffer in 96-well polypropylene plates. Binding reaction mixtures were prepared in 96-well black Dynex microtiter plates by sequential addition of the following assay components to each well: 15 μL of 10× test compound solution, 85 μL of GR-containing baculovirus lysate diluted 1:170 in assay buffer, and 50 μL of 15 nM TAMRA-labeled dexamethasone. Positive controls were reaction mixtures containing no test compound; negative controls (blanks) were reaction mixtures containing 0.7 μM to 2 μM dexamethasone. […] IC50 values were determined by iterative non-linear curve fitting of the FP signal data to a 4-parameter logistic equation.
row,Compound,activity in the GR binding assay
1,"CC(C)(CC(O)(Cc1cc2ccccc2[nH]1)C(F)(F)F)c1ccc(C(F)(F)F)cc1 (stereo not drawn) [1,1,1-Trifluoro-2-(1H-indol-2-ylmethyl)-4-methyl-4-(4-trifluoromethylphenyl)pentan-2-ol]",potent activity
2,"CC(C)(CC(O)(Cc1cc2cc(-c3ccccc3)ccc2[nH]1)C(F)(F)F)c1cc(F)cc2c1OCC2 (stereo not drawn) [1,1,1-Trifluoro-4-(5-fluoro-2,3-dihydrobenzofuran-7-yl)-4-methyl-2-(5-phenyl-1H-indol-2-ylmethyl)pentan-2-ol]",potent activity
3,"COc1ccc(F)cc1C(C)(C)CC(O)(Cc1cc2cnccc2o1)C(F)(F)F (stereo not drawn) [1,1,1-Trifluoro-4-(5-fluoro-2-methoxyphenyl)-2-furo[3,2-c]pyridin-2-ylmethyl-4-methylpentan-2-ol]",potent activity
4,"COc1ccc(F)cc1C(C)(C)CC(O)(Cc1cc2nc(C)ncc2[nH]1)C(F)(F)F (stereo not drawn) [1,1,1-Trifluoro-4-(5-fluoro-2-methoxyphenyl)-4-methyl-2-(2-methyl-5H-pyrrolo[3 ,2-d]pyrimidin-6-ylmethyl)pentan-2-ol]",potent activity
5,"COc1ccc(F)cc1C(C)(C)CC(O)(Cc1ccncc1)C(F)(F)F (stereo not drawn) [1,1,1-Trifluoro-4-(5-fluoro-2-methoxyphenyl)-4-methyl-2-pyridin-4-ylmethylpentan-2-ol]",potent activity
6,"COc1ccc(F)cc1C(C)(C)CC(O)(Cn1ccc2cccnc21)C(F)(F)F (stereo not drawn) [1,1,1-Trifluoro-4-(5-fluoro-2-methoxyphenyl)-4-methyl-2-pyrrolo[2,3-b]pyridin-1-ylmethylpentan-2-ol]",potent activity
7,"COc1ccc(F)cc1C(C)(C)CC(O)(Cn1ccc2ncccc21)C(F)(F)F (stereo not drawn) [1,1,1-Trifluoro-4-(5-fluoro-2-methoxyphenyl)-4-methyl-2-pyrrolo[3,2-b]pyridin-1-ylmethylpentan-2-ol]",potent activity
8,"COc1ccc(F)cc1C(C)(C)CC(O)(Cn1ccc2cnccc21)C(F)(F)F (stereo not drawn) [1,1,1-Trifluoro-4-(5-fluoro-2-methoxyphenyl)-4-methyl-2-pyrrolo[3,2-c]pyridin-1-ylmethylpentan-2-ol]",potent activity
9,"COc1ccc(F)cc1C(C)(C)CC(O)(Cc1cc2cnccc2s1)C(F)(F)F (stereo not drawn) [1,1,1-Trifluoro-4-(5-fluoro-2-methoxyphenyl)-4-methyl-2-thieno[3,2-c]pyridin-2-ylmethylpentan-2-ol]",potent activity
10,"Cc1ccc(F)cc1C(C)(C)CC(O)(Cc1cc2nnccc2[nH]1)C(F)(F)F (stereo not drawn) [1,1,1-Trifluoro-4-(5-fluoro-2-methylphenyl)-4-methyl-2-(5H-pyrrolo[3,2-c]pyridazin-6-ylmethyl)pentan-2-ol]",potent activity
11,"CC(C)(CC(O)(Cc1ccnc2ccccc12)C(F)(F)F)c1ccncc1 (stereo not drawn) [1,1,1-Trifluoro-4-methyl-4-pyridin-4-yl-2-quinolin-4-ylmethylpentan-2-ol]",potent activity
12,COc1ccc(F)cc1C(C)(C)CC(O)(Cc1cc2cc(C(=O)N3CCC(=O)CC3)ccc2[nH]1)C(F)(F)F (stereo not drawn) [1-{2-[4-(5-Fluoro-2-methoxyphenyl)-2-hydroxy-4-methyl-2-trifluoromethylpentyl]-1H-indole-5-carbonyl}piperidin-4-one],potent activity
13,"COc1ccc(F)cc1C(C)(C)CC(O)(Cc1cc(Cl)nc2ccc(Cl)cc12)C(F)(F)F (stereo not drawn) [2-(2,6-Dichloroquinolin-4-ylmethyl)-1,1,1-trifluoro-4-(5-fluoro-2-methoxyphenyl)-4-methylpentan-2-ol]",potent activity
14,"CC(C)(CC(O)(Cc1[nH]c2ccccc2c1Br)C(F)(F)F)c1cccc(F)c1 (stereo not drawn) [2-(3-Bromo-1H-indol-2-ylmethyl)-1,1,1-trifluoro4-(3-fluorophenyl)-4-methylpentan-2-ol]",potent activity
15,"COc1ccc(F)cc1C(C)(C)CC(O)(Cc1cc2ccccc2s1)C(F)(F)F (stereo not drawn) [2-Benzo[b]thiophen-2-ylmethyl-1,1,1-trifluoro-4-(5-fluoro-2-methoxyphenyl)-4-methylpentan-2-ol]",potent activity
16,COc1ccc(C)cc1C(C)(C)CC(O)(Cc1cc2c(C)cc(C#N)cc2[nH]1)C(F)(F)F (stereo not drawn) [2-[2-Hydroxy-4-(2-methoxy-5-methylphenyl)-4-methyl-2-trifluoromethylpentyl]-4-methyl-1H-indole-6-carbonitrile],potent activity
17,"Cc1cccc2c(CC(O)(CC(C)(C)c3cc(F)ccc3O)C(F)(F)F)cc(Cl)nc12 (stereo not drawn) [2-[3-(2-Chloro-8-methylquinolin-4-ylmethyl)-4,4,4-trifluoro-3-hydroxy-1,1-dimethylbutyl]-4-fluorophenol]",potent activity
18,"CC(C)(CC(O)(Cc1cc2cc(C(=O)O)ccc2[nH]1)C(F)(F)F)c1cc(Br)cc2c1OCC2 (stereo not drawn) [2-[4-(5-Bromo-2,3-dihydrobenzofuran-7-yl)-2-hydroxy-4-methyl-2-trifluoromethylpentyl]-1H-indole-5-carboxylic acid]",potent activity
19,CC(C)(CC(O)(Cc1cc2ccc(C(N)=O)cc2[nH]1)C(F)(F)F)c1cc(F)ccc1O (stereo not drawn) [2-[4-(5-Fluoro-2-hydroxyphenyl)-2-hydroxy-4-methyl-2-trifluoromethylpentyl]-1H-indole-6-carboxylic acid amide],potent activity
20,CN(C)C(=O)c1ccc2cc(CC(O)(CC(C)(C)c3cc(F)ccc3O)C(F)(F)F)[nH]c2c1 (stereo not drawn) [2-[4-(5-Fluoro-2-hydroxyphenyl)-2-hydroxy-4-methyl-2-trifluoromethylpentyl]-1H-indole-6-carboxylic acid dimethylamide],potent activity
21,COc1ccc(F)cc1C(C)(C)CC(O)(Cc1cc2cc(C(=O)NCCO)ccc2[nH]1)C(F)(F)F (stereo not drawn) [2-[4-(5-Fluoro-2-methoxyphenyl)-2-hydroxy-4-methyl-2-trifluoromethylpentyl]-1H-indole-5-carboxylic acid (2-hydroxyethyl)amide],potent activity
22,CNC(=O)c1ccc2[nH]c(CC(O)(CC(C)(C)c3cc(F)ccc3OC)C(F)(F)F)cc2c1 (stereo not drawn) [2-[4-(5-Fluoro-2-methoxyphenyl)-2-hydroxy-4-methyl-2-trifluoromethylpentyl]-1H-indole-5-carboxylic acid methylamide],potent activity
23,COc1ccc(F)cc1C(C)(C)CC(O)(Cc1cc2cc(C(=O)OCC[Si](C)(C)C)ccc2[nH]1)C(F)(F)F (stereo not drawn) [2-[4-(5-Fluoro-2-methoxyphenyl)-2-hydroxy-4-methyl-2-trifluoromethylpentyl]-1H-indole-5-carboxylic acid-2-trimethylsilanylethyl ester],potent activity
24,COc1ccc(F)cc1C(C)(C)CC(O)(Cc1cc2ccc(C(N)=O)cc2[nH]1)C(F)(F)F (stereo not drawn) [2-[4-(5-Fluoro-2-methoxyphenyl)-2-hydroxy-4-methyl-2-trifluoromethylpentyl]-1H-indole-6-carboxylic acid amide],potent activity
